The values below come from US6685968B1, “Boric acid sapstain control method” (priority 2003, dated 2004).

The subject of the assay is sapstain. Conditions: fresh cut hackberry lumber dipped in aqueous solutions (1,3,5,7 and 10% boric acid; DOT at the same level of boric oxide); stacked for air drying; examined after six months of seasoning and planing. Here is the method: Aqueous solutions containing 1,3,5,7, and 10% boric acid according to my preferred embodiment were prepared and used to treat fresh cut hackberry lumber by dipping. Aqueous disodium octaborate tetrahydrate solutions containing the same level of boric oxide were prepared and used in the same manner. This treated lumber, and untreated controls, was stacked in accordance with standard sawmill air drying practice. After six months of seasoning the lumber was planed, and examined for sapstain control.

Molecules are shown by their SMILES.

As to `O.O.O.O.O=BOB1OB(OB=O)OB2OB([O-])OB([O-])OB(O1)O2.[Na+].[Na+]` [DOT, disodium octaborate tetrahydrate], the sapstain control entry was “superior to the untreated controls”.
As for `OB(O)O` [boric acid], the sapstain control result is given as “superior sapstain control compared to the DOT concentrations”.
